Experimental data from PubChem BioAssay (NCI).
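Protocol summary: plate cells (96-well), add compound at 5 concentrations, incubate 48 h, interpolate endpoints linearly. GI50 = concentration required for 50% inhibition of growth. TGI: concentration producing complete growth inhibition.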

Key:
Assay in all cases: NCI anticancer screen, dose series, 48 h
[1] = system: 786-0 renal
[2] = system: A498 renal
[3] = system: A549 NSCLC
[4] = system: ACHN renal
[5] = system: BT-549 breast
[6] = system: CAKI-1 renal
[7] = system: CCRF-CEM leukemia
[8] = system: COLO 205 colon
[9] = system: DU-145 prostate
[10] = system: EKVX NSCLC
[11] = system: HCC-2998 colon
[12] = system: HCT-116 colon
[13] = system: HCT-15 colon
[14] = system: HL-60(TB) leukemia
[15] = system: HOP-62 NSCLC
[16] = system: HOP-92 NSCLC
[17] = system: HS 578T breast
[18] = system: HT29 colon
[19] = system: IGROV1 ovarian
[20] = system: K-562 leukemia
[21] = system: KM12 colon
[22] = system: LOX IMVI melanoma
[23] = system: M14 melanoma
[24] = system: MALME-3M melanoma
[25] = system: MCF7 breast
[26] = system: MDA-MB-231 breast
[27] = system: MDA-MB-435
[28] = system: MDA-MB-468 breast
[29] = system: MOLT-4 leukemia
[30] = system: NCI-H226 lung
[31] = system: NCI-H23 lung
[32] = system: NCI-H460 lung
[33] = system: NCI-H522 lung
[34] = system: NCI/ADR-RES ovarian
[35] = system: OVCAR-3 ovarian
[36] = system: OVCAR-4 ovarian
[37] = system: OVCAR-5 ovarian
[38] = system: OVCAR-8 ovarian
[39] = system: PC-3 prostate
[40] = system: RPMI-8226 leukemia
[41] = system: RXF 393 renal
[42] = system: SF-268 CNS
[43] = system: SF-295 CNS
[44] = system: SF-539 CNS
[45] = system: SK-MEL-2 melanoma
[46] = system: SK-MEL-28 melanoma
[47] = system: SK-MEL-5 melanoma
[48] = system: SK-OV-3 ovarian
[49] = system: SN12C renal
[50] = system: SNB-19 CNS
[51] = system: SNB-75 CNS
[52] = system: SR leukemia
[53] = system: SW-620 colon
[54] = system: T-47D breast
[55] = system: TK-10 renal
[56] = system: U251 CNS
[57] = system: UACC-257 melanoma
[58] = system: UACC-62 melanoma
[59] = system: UO-31 renal

SMILES: Nc1nn2c(-c3cc4cc(Br)ccc4oc3=O)ccnc2c1N=Nc1ccccc1
- GI50 [1]: 2.01 µM
- TGI [1]: 4.71 µM
- GI50 [2]: 1.97 µM
- TGI [2]: 6.71 µM
- GI50 [3]: 3.42 µM
- TGI [3]: 29.3 µM
- GI50 [4]: 3.16 µM
- TGI [4]: 14.4 µM
- GI50 [5]: 1.92 µM
- TGI [5]: 3.77 µM
- GI50 [6]: 5.55 µM
- TGI [6]: 25.2 µM
- GI50 [7]: 24.6 µM
- TGI [7]: > 100 µM
- GI50 [8]: 23.2 µM
- TGI [8]: > 100 µM
- GI50 [9]: 4.71 µM
- TGI [9]: > 100 µM
- GI50 [10]: 3.29 µM
- TGI [10]: 18 µM
- GI50 [11]: 3.17 µM
- TGI [11]: 14.8 µM
- GI50 [12]: 2.23 µM
- TGI [12]: 4.73 µM
- GI50 [13]: 4.87 µM
- TGI [13]: > 100 µM
- GI50 [14]: > 100 µM
- TGI [14]: > 100 µM
- GI50 [15]: 1.84 µM
- TGI [15]: 4.23 µM
- GI50 [16]: 2.21 µM
- TGI [16]: 6.04 µM
- GI50 [17]: 3.11 µM
- TGI [17]: 17 µM
- GI50 [18]: 3.13 µM
- TGI [18]: 11.5 µM
- GI50 [19]: 4.57 µM
- TGI [19]: 33.9 µM
- GI50 [20]: 26.7 µM
- TGI [20]: > 100 µM
- GI50 [21]: 3.32 µM
- TGI [21]: > 100 µM
- GI50 [22]: 3.09 µM
- TGI [22]: 10.7 µM
- GI50 [23]: 16 µM
- TGI [23]: > 100 µM
- GI50 [24]: 2.72 µM
- TGI [24]: 10.9 µM
- GI50 [25]: 3.24 µM
- TGI [25]: 17.5 µM
- GI50 [26]: 1.99 µM
- TGI [26]: 4.43 µM
- GI50 [27]: 5.31 µM
- TGI [27]: > 100 µM
- GI50 [28]: 2.21 µM
- TGI [28]: 9.7 µM
- GI50 [29]: 31.8 µM
- TGI [29]: > 100 µM
- GI50 [30]: 2.16 µM
- TGI [30]: 5.84 µM
- GI50 [31]: 2.33 µM
- TGI [31]: 5.57 µM
- GI50 [32]: 1.95 µM
- TGI [32]: 5.05 µM
- GI50 [33]: 1.9 µM
- TGI [33]: 4.19 µM
- GI50 [34]: 2.07 µM
- TGI [34]: 4.54 µM
- GI50 [35]: 3.24 µM
- TGI [35]: 23.9 µM
- GI50 [36]: 2.89 µM
- TGI [36]: 15.3 µM
- GI50 [37]: 3.29 µM
- TGI [37]: 15.1 µM
- GI50 [38]: 2.24 µM
- TGI [38]: 5.36 µM
- GI50 [39]: 2.92 µM
- TGI [39]: 9.32 µM
- GI50 [40]: 31.6 µM
- TGI [40]: > 100 µM
- GI50 [41]: 1.99 µM
- TGI [41]: 4.95 µM
- GI50 [42]: 2.12 µM
- TGI [42]: 5.66 µM
- GI50 [43]: 2.1 µM
- TGI [43]: 4.88 µM
- GI50 [44]: 1.99 µM
- TGI [44]: 3.88 µM
- GI50 [45]: 3.96 µM
- TGI [45]: 19.8 µM
- GI50 [46]: 5.02 µM
- TGI [46]: 22.3 µM
- GI50 [47]: 2.71 µM
- TGI [47]: 8.1 µM
- GI50 [48]: 1.87 µM
- TGI [48]: 3.95 µM
- GI50 [49]: 1.91 µM
- TGI [49]: 4.92 µM
- GI50 [50]: 1.94 µM
- TGI [50]: 4.26 µM
- GI50 [51]: 1.29 µM
- TGI [51]: 3.18 µM
- GI50 [52]: 5.38 µM
- TGI [52]: > 100 µM
- GI50 [53]: 6.24 µM
- TGI [53]: > 100 µM
- GI50 [54]: 2.79 µM
- TGI [54]: 13.2 µM
- GI50 [55]: 12.7 µM
- TGI [55]: 37.2 µM
- GI50 [56]: 2.01 µM
- TGI [56]: 4.4 µM
- GI50 [57]: 11.8 µM
- TGI [57]: 40.9 µM
- GI50 [58]: 5.52 µM
- TGI [58]: 22.1 µM
- GI50 [59]: 11.1 µM
- TGI [59]: 86.6 µM
